Test results from patent US10456405B2, “Nitric oxide-releasing prodrug molecule of substituted quinazolines” (ZHEJIANG HUAHAI PHARMACEUTICAL CO., LTD, priority 2015, dated 2019).
Where two headings read alike, the source gives them in different places.

Experiments:
ApoA-I mRNA = assay: Regulation of ApoA-I mRNA in HepG2 cells (real-time PCR); type: cell-based; parameters: key: Active: When 100 μM of the tested compound allowed ApoA-I mRNA in HepG2 cells to increase more than 15%, then the test compound was known as an ApoA active compound; conditions: 100 μM, 48 h, relative to DMSO control
Method: Experiment 5. Regulation of the Tested Compounds on ApoA-I mRNA HepG2 cells were cultured for 24 h in a 24-well plate with 400 μl of MEM medium containing 0.5% (v/v) of fetal bovine serum. Then each of the tested compounds (100 μM) and the positive control RVX-208 (100 μM) were added. The cells were cultured for another 48 h. The medium was aspirated out. After washing with 200 μl of PBS, 85 μl of cell lysis solution was added into the cells in each well. The cells were incubated at room temperature for 5 to 10 min to be completely dissolved and detached. The mRNA was extracted from the cells with a kit. The extracted mRNA were used for a real-time fluorescence quantitative PCR detection with RNA Fluorescence (RiboGreen) Quantitation Assay Kit and ApoA-I mRNA Primer-Probe Mixture from the company of Applied Biosystems.
After obtaining the Ct values, the induction fold of each test compound relative to DMSO control was calculated. The induction fold was used to reflect the ability of regulating ApoA-I mRNA for the tested compounds. When 100 μM of the tested compound allowed ApoA-I mRNA in HepG2 cells to increase more than 15%, then the test compound was known as an ApoA active compound.

C57BL/6 mice = assay: Serum NO level in C57 mice after oral gavage; type: in vivo; conditions: oral gavage 150 mg/kg (positive drug 5 mg/kg), FIG. 1
Source text: Experimental method: 60 eight-week-old C57BL/6 mice (level: SPF; gender: male; source: Shanghai SLAC Laboratory Animal Co., Ltd.) were selected. […] were selected as the blank control. 12 mice were used as the positive drug control (isosorbide mononitrate). 12 mice were used as […] administration group. The other 32 mice were randomly divided into 4 groups, 8 mice per group, which are […] administration group, […] administration group, […] administration group, and […] administration group, respectively. The tested compounds of the positive drug control group and each administration group were dissolved in DMSO and then PEG400 was added thereto. The mixture was shaken and mixed thoroughly. At last, 10% of HP-β-CD was added. The mixture was shaken and mixed thoroughly. The ratio of each solvent was DMSO: PEG400:10% of HP-β-CD=5:67.5:27.5. The administration groups were administered by oral gavage at the dose of 150 mg/kg. The positive drug control group was administered at the dose of 5 mg/kg. The mice in each group were sacrificed by inhaling excess CO2 at 10 min, 30 min, 60 min, 120 min, 180 min, and 240 min after administration. The blood was collected into a 1.5 mL centrifuge tube, standing at room temperature for more than 30 min, and then centrifuged (3000 rpm, 10 min). The supernatant serum was aspirated, and stored at -80° C. for testing. After the blood was collected, the heart was cut with the thoracic aorta. Three parts of the heart were weighed and placed into cryovials, rapidly frozen in liquid nitrogen, and cryopreserved at -80° C. for testing. The aorta and aortic arch were weighed, rapidly frozen in liquid nitrogen, and cryopreserved at -80° C. for testing. The content of NO in the serum of C57BL/6 mice was determined by using the total NO test kit (Beyotime).

db/db mice = assay: Serum NO and heart eNOS in db/db mice after oral gavage; type: in vivo; conditions: blank = 100, oral gavage 150 mg/kg (isosorbide mononitrate 5 mg/kg), 1 h after administration (H101: 2 h)
Source text: Experimental method: 25 eight-week-old db/db mice (strain: BKS.Cg−+Leprdb/+leprdb/JclSlac; grade: SPF; gender: male; source: Shanghai SLAC Laboratory Animal Co., Ltd.) were selected. 3 of them were selected as the blank administration control. 2 mice were used as the positive drug control (isosorbide mononitrate). The remaining 20 mice were randomly divided into 5 groups, 4 mice per group, which are H101 administration group, H111 administration group, H116 administration group, H119 administration group, and H130 administration group. The tested compounds of the positive drug control group and each administration group were dissolved in DMSO. Then PEG400 was added. The mixture was shaken and mixed thoroughly. At last, 10% of HP-β-CD was added. The mixture was shaken and mixed thoroughly. The ratio of each solvent was DMSO: PEG400:10% of HP-β-CD=5:67.5:27.5. The administration group was administered by oral gavage at the dose of 150 mg/kg. The positive drug control group was administered at the dose of 5 mg/kg. The mice in the H101 administration group were sacrificed at 2 h after the administration. The mice in the remaining administration groups were sacrificed at 1 h after the administration. The blood was collected respectively into 1.5 mL centrifuge tube, standing at room temperature for more than 30 min, and then centrifuged (3000 rpm, 10 min). The supernatant serum was aspirated, and stored at −80° C. for testing. After the blood was collected, the heart was cut with the thoracic aorta. Three parts of the heart were weighed and placed into cryovials, rapidly frozen in liquid nitrogen, and cryopreserved at −80° C. for testing. The aorta and aortic arch were weighed, rapidly frozen in liquid nitrogen, and cryopreserved at −80° C. for testing. The content of NO in the serum of the […] mice was determined by a total NO test kit (Beyotime). The content of NOS in the heart of the mice was determined with an NOS test kit (Beyotime). The content of eNOS was calculated by the difference between the measured values before and after adding the eNOS inhibitor L-NAME (Beyotime).

[1] = rat, in vivo
Method: Experimental method: Intravenous injection solutions (the administration concentrations of the tested compounds were 1 mg/kg) and oral gastric perfusates (the administration concentrations of the test compounds were 5 mg/kg) of the test compounds were prepared, and intravenously and orally administered to three SD rats, respectively. The concentrations of the whole blood for H130 at 0.083 h, 0.25 h, 0.5 h, 1 h, 2 h, 4 h, 8 h, and 24 h after administration were determined by LC-MS/MS, respectively. The pharmacokinetic parameters were compared by a drug-time curve. Sample pretreatment: 150 μL of the whole blood to be tested was aspirated accurately. 600 μL of internal standard solution (diluted to 0.5 μg/mL with methanol) was added, sufficiently mixed by a vortex mixer, and centrifuged at 13000 r/min for 20 min at 4° C. 3 μL of the supernatant was taken into a sample vial.
Chromatographic conditions: C18 reversed-phase chromatographic column; gradient elution with mobile phase A: water/acetonitrile (v:v=95:5) with 0.025% of formic acid and 1 mM of ammonium acetate added thereto, and mobile phase B: acetonitrile/water (v:v=95:5) with 0.025% of formic acid and 1 mM of ammonium acetate added thereto.

Row | Compound | Upregulation of Apoa-I Mrna Level (ApoA-I mRNA) | time after administration at which serum NO level rose to its maximum, then decreased (C57BL/6 mice) [h] | Heart eNOS (db/db mice) [%] | Serum NO (db/db mice) [%] | release of prototype compound H130 after administration [1] | AUCRatio (Dosage Calibration) ([1]; iv, 1 mg/kg) [%] | AUCRatio (Dosage Calibration) ([1]; po, 5 mg/kg) [%] | AUCRatio (Dosage Calibration) ([1]; SD, iv, 1 mg/kg) [%] | AUCRatio (Dosage Calibration) ([1]; SD, po, 5 mg/kg) [%]
1 | 2-[4-(5,7-dimethoxy-4-oxo-3,4-dihydro-quinazolin-2-yl)-2,6-dimethyl-phenoxy]-ethyl 4-(2-oxo-3-nitroxymethyl-1,2,5-oxadiazol-3-methyl)oxy-4-oxo-butyrate [Compound H111] | Active | 1 | 165 | 154 | can be rapidly released | 54.9 | 41.8 |  | 
2 | COc1cc(OC)c2c(=O)[nH]c(-c3cc(C)c(OCCO[N+](=O)[O-])c(C)c3)nc2c1 [Compound H101, 2-(4-(2-nitrooxy-ethoxy)-3,5-dimethylphenyl)-5,7-dimethoxyquinazolin-4(3H)-one] | Active | 2 | 162 | 142 | can be rapidly released |  |  | 37.7 | 42.4
3 | COc1cc(OC)c2c(=O)[nH]c(-c3cc(C)c(OCCOC(=O)OC4COC5C(O[N+](=O)[O-])COC45)c(C)c3)nc2c1 (stereo not drawn) [Compound H119, 2-[4-(5,7-dimethoxy-4-oxo-3,4-dihydro-quinazolin-2-yl)-2,6-dimethyl-phenoxy]-ethyl (6-nitroxy-hexahydrofuro[3,2-b]furan-3-yl)-carbonate] | Active | 1 | 156 | 152 | can be rapidly released | 55.6 | 0.84 |  | 
